Test results reported in patent US20240117431A1, “STEM-CELL BASED BIOMARKER DISCOVERY” (THE REGENTS OF THE UNIVERSITY OF CALIFORNIA, priority 2020, published 2024).

What was measured:
[1] = system: mutant TgUPRT (triple mutants 3×MT, M166A/A168G/Y228A and M166A/A168G/Y228G) in HEK293 cells; experiment: In-cell RNA incorporation by mutant TgUPRT, streptavidin dot blot; assay type: cell-based, Toxoplasma gondii
Protocol: (§1) Transfection, labeling of cellular RNA and RNA isolation: After 48h seeding, HEK293 cells were transfected with 2.5 μg of TgUPRT WT or mutant plasmids (pKN-CMV-TgUPRT-WT or -Mutt to Mut17) per 5 cm plate using JetPrime Transfection reagent (Polyplus Transfection, France). At 40h post-transfection, cells were incubated with a final concentration of 200 μM at <1% DMSO from 400 mM stock of uracil analogs (5EU, 5VU, 5AU) or 200 mM SAMU stock for 5 h. For time course study, HEK cells were treated with 200 μM uracil analogs for 0 h, 0.5, 1, 3, 5, 12 and 24 hours. For titrating uracil analog concentration experiments, HEK cells were treated with 0 (DMSO), 50, 100, 200, 500 μM or 1 mM uracil analog for 5h. Treated HEK cells were subjected to total RNA extraction using 1 mL Trizol Reagent (Invitrogen) following the manufacturer instructions.
(§2) Biotinylation via CuAAC and IEDDA: Cu-mediated Azide-Alkyne cycloaddition (CuAAC) click reactions were performed in 50 μL reaction at 22° C. on a shaker for 30 min with click reaction cocktail containing 15 μg of total RNA, 1 mM biotin alkyne or biotin azide, fresh 4.6 mM THPTA to a final concentration of 1 mM, and fresh 10.6 mM sodium ascorbate (NaAsc) at final concentration of 1.77 mM, and 12 mM CuSO4 at final concentration of 200 μM in biotinylation reaction buffer (10 mM TrisHCI, 1 mM EDTA, pH7.4). The biotinylated RNA was purified using RNA clean & Concentrator-5 kit (Zymo Research, Cat #R1013) according to the manufacturer instructions and eluted in 21 μL of nuclease free water.
(§3) Inverse electron demand [4+2] Diels-Alder cycloaddition (IEDDA) click reactions were performed in 50 μL at 37° C. or 22° C. (RT) for 3h on mixer at 500 rpm containing 10-15 μg of total RNA, 1 mM final concentration of biotin-benzyl tetrazine (Sigma Aldrich, Cat #793329-5MG) in nuclease free water. Clicked total RNA was purified using RNA clean & Concentrator-5 kit (Zymo Research, Cat #R1013) according to the manufacturer instructions, and RNA was eluted in 21 μL of nuclease free water.
(§4) HRP-streptavidin dot blot analysis: All gel reagents were from Bio-Rad. […]

[2] = molecular target: T1, wild-type (WT) TgUPRT in HEK cells (Toxoplasma gondii, UniProt Q26998); experiment: In-cell RNA incorporation by wild-type TgUPRT, streptavidin dot blot; assay type: cell-based
T1 construct: 6xHis; expressed in transfected cells; host or cells: HEK293 (HEK293T)
Protocol: as §1, §2, §3, §4

T1 sequence (Q26998 whole entry): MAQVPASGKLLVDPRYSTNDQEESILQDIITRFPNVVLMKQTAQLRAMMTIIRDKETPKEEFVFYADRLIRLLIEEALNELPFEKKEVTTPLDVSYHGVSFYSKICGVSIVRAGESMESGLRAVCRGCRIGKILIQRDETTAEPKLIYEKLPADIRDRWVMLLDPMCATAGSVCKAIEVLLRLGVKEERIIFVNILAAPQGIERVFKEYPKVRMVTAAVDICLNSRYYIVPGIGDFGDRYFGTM

Structure (SMILES)	analog incorporation over time with mutant TgUPRT enzymes ([1]; 200 μM time course to 24 h, in comparison to wild-type)	time at which analog incorporation was observed ([1]; 200 μM time course, dot blot, FIG. 9B) [hr]	incorporation into RNA by triple mutants (3×MT) ([1]; 200 μM, 5 hours, HEK293T)	analog incorporation over time with wild-type TgUPRT ([2]; 200 μM, long periods of incubation, FIG. 9B)	TgUPRT-dependent incorporation into cellular RNA ([2]; wild-type TgUPRT active site)
C=Cc1c[nH]c(=O)[nH]c1=O [compound 2, 5-Vinylpyrimidine-2,4(1H,3H)-dione]	much more robust over time	0.5	robust incorporation	did not result in any observed incorporation	–
C#Cc1c[nH]c(=O)[nH]c1=O [compound 1, 5-ethynylpyrimidine-2,4(1H,3H)-dione]	–	–	–	–	capable of such transformations
